These are literature values, as cited in publication PMC4191344, “Identification and characterization of Aβ peptide interactors in Alzheimer’s disease by structural approaches” (Frontiers in Aging Neuroscience, 2014).

The subject of the data set is Aβ. Conditions: in vitro; ref Pollio et al., 2008. An excerpt: Early literature was somewhat conflicting explicating the role of the EP24.15 metalloenzyme in the etiology of AD. This enzyme was originally erroneously thought to be the β-secretase activity initiating the processing of the APP into Aβ (Papastoitsis et al., [1994]) prior to the discovery of the beta amyloid cleaving enzyme-1 (BACE-1). The EP24.15 gene is located at a chromosomal locus that is close to a region involved with early onset AD (Meckelein et al., [1996]). […] In older transgenic animals, EP24.15 protein was increased in the hippocampus, supportive of a role in Aβ clearance though there was no attributable mechanism.

Consider “EP24.15: soluble, 77 kD metalloendopeptidase in the family of zinc metallopeptidases”, for which the “inhibition of Aβ toxicity by EP24.15 expression” value is “inhibit the toxicity of Aβ in vitro”.
